Experiments:
[1] = tested on: mélanome B 16; test: B 16 melanoma test in vivo; design: species or system souris hybrides BDF1; Jour médian de survie: unit not given here; conditions: for Survivants: at day J 60
Excerpt: L'activité antitumorale a été testée in vivo sur différentes tumeurs selon le protocole général suivant : Toutes les souris mâles ou femelles sont inoculées par voie intrapéritonéale au jour Jo avec une quantité déterminée de cellules tumorales viables, variable selon la tumeur.
Elles sont ensuite réparties en différents lots. Chaque lot correspondant aux animaux traités par le produit à tester à une dose déterminée est composé de lO souris. Dans ce cas, le produit à tester est dissous dans l'eau distillée et il est administré, pendant n jours (J1-Jn) variables selon le protocole choisi, par voie intrapéritonéale à raison de 0,1 ml par lO g de poids des souris traitées, les doses du produit administré étant précisées dans les tableaux ci-dessous.
Le lot "Contrôle négatif", correspondant aux animaux qui ne sont pas traités par un produit, comprend 2 √N animaux, N étant égal au nombre total de souris traitées par un produit.
Enfin, tous lés essais sont conduits parallèlement à l'étude d'un lot appelé "Contrôle positif" de 10 animaux qui est traité par une molécule active, variable selon le protocole choisi, dans les mêmes conditions que les lots traités par le produit à tester, afin de valider l'essai.
L'activité antitumorale est évaluée en considérant l'augmentation du temps de survie des animaux traités par rapport à celui des animaux du lot "Contrôle négatif" selon la formule : • Jour médian de survie des animaux traités à une T/C = dose donnée de produit x 100 • Jour médian de survie des animaux "Contrôle négatif"
Un composé est considéré comme étant actif lorsque la valeur du rapport T/C est égale ou supérieure à 125 % selon le protocole retenu. Il est toxique lorsque cette valeur est égale ou inférieure à 85 %. Le produit est également considéré comme toxique lorsque la variation pondérale, exprimée en grammes et calculée par la formule : Poids moyen du lot mesuré au jour 5 - poids moyen du même lot au jour 1, est égale ou inférieure à -4g . a) Test de la leucémie P 388 (GERAN et al., Cancer Chemother, 1972, 2, 07-57).
c) Test du mélanome B 16 (GERAN et al., Cancer Chemother, 1972, 2, 07-57).
Les essais sont effectués avec des souris hybrides BDF1 inoculées avec O,5 ml d'un homogénat de mélanome B 16 réalisé à partir de 1 g de tumeur dans 10 ml de sérum physiologique. Le composé à tester est administré pendant 9 jours (J1-J9). Le contrôle positif du test est le Cis- platine administré dans les mêmes conditions. Le nombre d'animaux survivants est évalué au jour J 60. Un composé est considéré comme étant actif lorsque le rapport T/C est supérieur ou égal à 125 %.

[2] = in vivo; design: species or system souris; conditions: mouse, ip, 100 mg/kg
Method: Ainsi, l'administration à des souris hybrides CDF1 saines, en une injection unique par la voie intrapéritonéale, de doses croissantes des composés à tester (5 mg, 10 mg, 20 mg, 40 mg/kg) a permis de constater que, à ces doses, les produits étaient parfaitement tolérés puisque le taux de survivants était de 100 p. 100.
Dans les mêmes conditions, administrés à des souris BDF1 saines, les taux de survivants étaient de 100 p. 100 jusqu'à 100 mg/kg pour les dérivés 1, 3 et 9 et jusqu'à 200 mg/kg pour les dérivés 2 et 8.

[3] = tested on: lignée tumorale leucémie L 1210; test: In vitro cytotoxicity on L 1210 leukemia cell culture; format: cell-based; conditions: Mus musculus, L1210; concentration inhibiting cell proliferation by 50 p. 100, after 48 h contact; read-out: ID 50 (the source's name)
Method: 1) In vitro : (PAOLETTI et al., Chem. Biol. Interaction, 1979, 25, 45-58).
L'activité cytotoxique des composés de l'invention a été évaluée par des essais in vitro. Ces essais consistent à ajouter des concentrations croissantes du composé à tester à une culture cellulaire de la lignée tumorale leucémie L 1210 en phase exponentielle de croissance. Les cellules sont incubées à 37°C dans une étuve à C02 et comptées toutes les 24 heures. Le calcul de l'ID 50 (concentration du produit exprimée en micromole 1^-1 qui inhibe la prolifération cellulaire à 50 p. 100) est effectué après 48 heures de contact. Ainsi déterminées, les ID 50 des composés de l'invention sont rassemblées dans le tableau I ci-après : […]

SMILES | Jour médian de survie ([1]; 5 mg/kg i.p. J1-J9) | T/C % ([1]; 5 mg/kg i.p. J1-J9) | Survivants ([1]; 5 mg/kg i.p. J1-J9) | Jour médian de survie ([1]; 20 mg/kg i.p. J1-J9) | T/C % ([1]; 20 mg/kg i.p. J1-J9) | Survivants ([1]; 20 mg/kg i.p. J1-J9) | Jour médian de survie ([1]; 40 mg/kg i.p. J1-J9) | T/C % ([1]; 40 mg/kg i.p. J1-J9) | Survivants ([1]; 40 mg/kg i.p. J1-J9) | survival [2] | Jour médian de survie ([1]; 30 mg/kg i.p. J1-J9) | T/C % ([1]; 30 mg/kg i.p. J1-J9) | Survivants ([1]; 30 mg/kg i.p. J1-J9) | Jour médian de survie ([1]; 50 mg/kg i.p. J1-J9) | T/C % ([1]; 50 mg/kg i.p. J1-J9) | Survivants ([1]; 50 mg/kg i.p. J1-J9) | Jour médian de survie ([1]; 60 mg/kg i.p. J1-J9) | T/C % ([1]; 60 mg/kg i.p. J1-J9) | Survivants ([1]; 60 mg/kg i.p. J1-J9) | IC50 [3]
Cc1cnc(NCCCN(C)C)c2c1[nH]c1ccncc12 [Dérivé N° 3, [(diméthylamino-3 propyl-1)amino]-1 méthyl-4 5-H pyrido[3',4':4,5]pyrrolo[3,2-c]pyridine] | 29 | 125% | 0 | 29,3 | 126% | 0 | 9,8 | 42% | 0 | 100% | – | – | – | – | – | – | – | – | – | –
CCN(CC)CCCNc1ncc(C)c2c1c1cnccc1n2C [Dérivé N° 4, [(diéthylamino-3 propyl-1)amino]-1 diméthyl-4,5 5-H pyrido[3',4':4,5]pyrrolo[3,2-c]pyridine] | – | – | – | 28 | 99% | 0 | 53,0 | 188% | 5 | – | 43,0 | 152% | 4 | 39,0 | 138% | 0 | 24,0 | 85% | 0 | 130 nM

Reference: EP0197829A1, “5H-pyrido[3',4':4,5]pyrrolo[3,2-c]pyridine derivatives, process for their preparation and their antitunour activity” (SANOFI, priority 1985, dated 1986)
